The source of these data is US5071859A, “N-substituted azaheterocyclic carboxylic acids and pharmaceutical uses” (priority 1988, dated 1991).

Structures are written as SMILES. Counter-ions that a name gives are not always drawn.

The test system of one test is [^3 H]-GABA uptake. As to the kind of experiment: in vitro inhibition of [^3 H]-GABA uptake (method of Fjalland). To be noted: rat cortical tissue homogenate; 60 min at 30° C.; pH 7.5; ligand 0.2 nM. The class given is biochemical, Male Wistar rat (cortical tissue). How it is done:
Male Wistar rat cortical tissue was gently homogenized by hand using a glass/PTFE homogenizer in 10 volumes of 0.32 M sucrose. Incubation was performed in a 40 mM tris HCl buffer (pH 7.5 at 30° C.) containing […], […], 4 mM MgSO4, 2.3 mM CaCl2 and 10 mM glucose, for 60 min. at 30° C. Ligand concentration was 0.2 nM.

In a further test the test system is GABA uptake. Particulars: oral; cited from earlier work.
Test [1] concerns GABA uptake from the synaptic cleft into presynaptic nerve terminals and glial cells. To be noted: cited from earlier work.

On to `O=C(O)[C@@H]1CCCN(CCOC=C(c2ccccc2)c2ccccc2)C1` [Example 2, (R)-1-[2-[[2,2-Diphenylethenyl]oxy]ethyl]-3-piperidine carboxylic acid hydrochloride], for which it took 104 nM to reach half-maximal inhibition in test [^3 H]-GABA uptake (IC50). That is a sub-micromolar value.

`Cc1ccsc1C(=COCCN1CCC[C@@H](C(=O)O)C1)c1sccc1C` [Example 12, (R)-1-[2-[[2,2-bis(3-Methyl-2-thienyl)ethenyl]oxy]ethyl]-3-piperidine carboxylic acid]: the IC50 (commonly the concentration that gives 50% inhibition) in test [^3 H]-GABA uptake amounted to 8 nM.

`Cc1ccccc1C(=COCCN1CCC=C(C(=O)O)C1)c1ccccc1C` [Example 13, 1-[2-[[2,2-bis(2-Methylphenyl)ethenyl]oxy]ethyl]-1,2,5,6-tetrahydro-3-pyridine carboxylic acid hydrochloride] showed a half-maximal inhibitory concentration (IC50) in test [^3 H]-GABA uptake of 26 nM.

Take `Cc1ccccc1C(=COCCN1CCC[C@@H](C(=O)O)C1)c1ccc(F)cc1C` [Example 14, (R)-1-[2-[[2-(4-Fluoro-2-methylphenyl)-2-(2-methylphenyl)ethenyl]oxy]ethyl]-3-piperidine carboxylic acid hydrochloride]: in test [^3 H]-GABA uptake, the IC50 turned out to be 30 nM. The IC50 values of the last two compounds are within 1.5-fold of each other.

In test [^3 H]-GABA uptake, `Cc1ccccc1C(=COCCN1CCC[C@@H](C(=O)O)C1)c1ccccc1C` [Example 17, (R)-1-[2-[[2,2-bis(2-Methylphenyl)ethenyl]oxy]ethyl]-3-piperidine carboxylic acid hydrochloride] gave an IC50 of 15 nM. This IC50 lies about 2-fold lower than the previous one.

`CCc1ccccc1C(=COCCN1CCC=C(C(=O)O)C1)c1ccccc1CC` [Example 23, 1-[2-[[2,2-bis(2-Ethylphenyl)ethenyl]oxy]ethyl]-1,2,5,6-tetrahydro-3-pyridine carboxylic acid hydrochloride] gave an IC50 in test [^3 H]-GABA uptake of 47 nM.

On to `Cc1ccccc1C(=COCCN1CCC[C@@H](C(=O)O)C1)c1ccccc1Cl` [Example 30, (R)-1-[2-[[2-(2-Chlorophenyl)-2-(2-methylphenyl)ethenyl]oxy]ethyl]-3-piperidine carboxylic acid hydrochloride], for which the IC50 in test [^3 H]-GABA uptake turned out to be 12 nM. This IC50 is about 3.9-fold lower than that of the compound before.

As for `O=C(O)[C@@H]1CCCN(CCOCC(c2ccccc2)c2ccccc2)C1` [Example 33, (R)-1-[2-[[2,2-Diphenylethyl]oxy]ethyl]-3-piperidine carboxylic acid], the half-inhibitory concentration (IC50) in test [^3 H]-GABA uptake was determined as 127 nM.

For `O=C(O)C1CCCN(CCC=C(c2ccccc2)c2ccccc2)C1` (stereo not shown) [SK&F 89976A, N-(4,4-diphenyl-3-butenyl)nipecotic acid], the “orally active inhibitors of GABA uptake” value in the test with GABA uptake is listed as “orally active inhibitors of GABA uptake”.

With `O=C(O)C1=CCCN(CCC=C(c2ccccc2)c2ccccc2)C1` [SK&F 100330A, N-(4,4-diphenyl-3-butenyl)guvacine], in the test on GABA uptake, the “orally active inhibitors of GABA uptake” value is “orally active inhibitors of GABA uptake”.

`O=C(O)CC1CCN(CCC=C(c2ccccc2)c2ccccc2)C1` (stereo not drawn) [SK&F 100561, N-(4,4-diphenyl-3-butenyl)homo-β-proline]: the “orally active inhibitors of GABA uptake” value with GABA uptake is listed as “orally active inhibitors of GABA uptake”.

Turning to `O=C(O)C1CCCN(CCC=C(c2ccccc2)c2cccs2)C1` (stereo not shown) [SK&F 100604J, N-(4-phenyl-4-(2-thienyl)-3-butenyl)nipecotic acid], in the test with GABA uptake, the “orally active inhibitors of GABA uptake” value is recorded as “orally active inhibitors of GABA uptake”.

`O=C(O)C1CCCNC1` (stereo not shown) [nipecotic acid, piperidine-3-carboxylic acid]: the “inhibitor of GABA uptake from the synaptic cleft” value in test [1] is reported as “potent inhibitor of GABA uptake”.
